The nature of one data set: Solubility in PBS. It counts as physicochemical. The note with it: aqueous buffer.
Data set [1] deals with plasma protein. In words: Plasma protein binding, human. The format is in vitro ADME. The note with it: plasma, read-out: Plasma Protein Binding % bound.
A short description of data set [2]: Microsomal stability, human. It counts as in vitro ADME.
The next data set deals with Caco2. In words: Caco2 permeability. It counts as in vitro ADME. Further details: unit not given beside the values. The note with it: for Caco2 A-B: A-B direction; for Caco2 B-A: B-A direction. A general note: Caco-2 monolayers are a common model of the intestinal barrier.
Data set [3] relates to plasma protein. In words: Plasma protein binding, rat. It counts as in vitro ADME. The note with it: plasma, read-out: Plasma Protein Binding % bound.
Data set [4] deals with T1, human D2R/β-arrestin (Homo sapiens (Human), UniProt P14416). Briefly: cell-based. The note with it: β-arrestin Antagonist, CHO-K1 cell line expressing human D2R/β-arrestin; quinpirole used as agonist.
Experimental: The detection reagents are then added, and the read-out is detected.
Cells were prepared for assays by growing cultures for up to 2 weeks (from about 6-20 passages). A vial of frozen cells was thawed in a water bath held at 37° C. The cells were then transferred into a 50 ml tube with 10 ml growth media. The vial was rinsed with growth media and the contents transferred to the 50 ml tube. The 50 ml tube was centrifuged at 1200 rpm for 5 minutes at room temperature. […] When the cells reached about 90% confluence (approximately 3 days between passages), the cells were passaged and used for either the agonist or antagonist assays as described below.
The cells were prepared for β-arrestin assays as described above. The assays were performed using a PathHunter® β-Arrestin Detecting Kit (DiscoveRX). The cells were grown on 225 mm dishes, then washed once with 1×PBS (Cellgro), followed by digestion with 2.5 ml 1× Detachment reagent (DRX 92-0009) for approximately 2 minutes.
A short description of the next data set: Plasma stability, human. It counts as in vitro ADME.
For data set [5], the system named is plasma protein. Briefly: Plasma protein binding, mouse. The format is in vitro ADME. The note with it: plasma, read-out: Plasma Protein Binding % bound.
In data set [6] the target is T1, human D2R/β-arrestin. Briefly: Gi/cAMP agonist assay (Lance Ultra cAMP, Forskolin). It counts as cell-based. The note with it: CHO-K1 cell line expressing human D2R/β-arrestin. In outline:
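Read-out was Lance Ultra competitive TR-FRET (Eu-cAMP tracer plus ULight-anti-cAMP) following forskolin-induced cAMP production. Before forskolin stimulation, compounds were pin-transferred onto the seeded cells for 10 min at 37 °C.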

A short description of data set [7]: Microsomal stability, rat. The format is in vitro ADME.
The nature of another data set: Plasma stability, rat. It counts as in vitro ADME.
For data set [8], the target named is T1, human D2R/β-arrestin. Briefly: β-Arrestin agonist assay (PathHunter). It counts as cell-based. The note with it: CHO-K1 cell line expressing human D2R/β-arrestin. Put shortly:
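Readout follows addition of Buffer:Emerald II:Galactor-Star reagent (19:5:1) to agonist-treated plates, measured as luminescence or fluorescence.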

Data set [9] deals with T1, human D2R/β-arrestin. Briefly: cell-based. The note with it: cAMP Antagonist, CHO-K1 cell line expressing human D2R/β-arrestin; quinpirole used as agonist.
Data set [10] can be described thus: Microsomal stability, mouse.
In a further data set the target is D2 (Homo sapiens (Human), UniProt P14416). In words: D2 radioligand binding assay.

Values after ≈ are worked out from the molar mass of the structure shown.

T1 sequence (P14416 whole entry): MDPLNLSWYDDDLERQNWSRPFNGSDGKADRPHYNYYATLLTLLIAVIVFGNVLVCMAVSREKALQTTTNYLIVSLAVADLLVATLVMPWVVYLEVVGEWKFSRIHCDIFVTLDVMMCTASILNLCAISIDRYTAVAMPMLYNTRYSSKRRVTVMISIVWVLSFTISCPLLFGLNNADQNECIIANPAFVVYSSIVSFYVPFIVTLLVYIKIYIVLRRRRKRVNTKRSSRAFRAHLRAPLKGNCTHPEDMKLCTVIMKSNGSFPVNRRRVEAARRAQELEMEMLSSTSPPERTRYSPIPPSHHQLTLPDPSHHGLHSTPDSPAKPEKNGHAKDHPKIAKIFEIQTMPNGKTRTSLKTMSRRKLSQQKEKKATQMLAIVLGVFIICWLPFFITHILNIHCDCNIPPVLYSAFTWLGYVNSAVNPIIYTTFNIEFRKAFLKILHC
Sequence of D2 (P14416 whole entry): as above

Take `O=C(NC(c1ccc(F)cc1)c1ccccn1)C1CCN(CCOc2ccccc2C(F)(F)F)CC1` (centres unmarked) [Compound 52]: the solubility (commonly the concentration that dissolves in the medium under given conditions) in “Solubility in PBS” stood at 27 µM (≈ 13.5 µg/mL). The fraction unbound in the data set with plasma protein [1] amounted to 0.009; with plasma protein [3], 0.021; in the data set on plasma protein [5], 0.009. For the same compound, the “Microsomal Stability: % remaining after 60 minutes” value (from here on “Microsomal Stability: % remaining”) worked out at 46% in data set [2], 7% in data set [7] and 7% in data set [10]. Moreover, in the data set on Caco2, the “Caco2 A-B” value was determined as 12.5. For the same compound, the “Caco2 B-A” value in the data set with Caco2 was found to be 9.0. Besides, the IC50 at human D2R/β-arrestin [4] and on human D2R/β-arrestin [9] was less than 100 nM each time. Further, the “Plasma Stability: % remaining after 5 hours” value (“Plasma Stability: % remaining” below) is given as 84% in the data set “Plasma stability, human”; 55% in the data set “Plasma stability, rat”; 89% in the data set “Plasma stability, mouse”. Also, the EC50 at human D2R/β-arrestin [6] and at human D2R/β-arrestin [8] was greater than 30000 nM in each case.

In turn, `O=C(NC(c1ccc(F)cc1)c1ccccn1)C1CCN(CCOc2ccccc2F)CC1` (centres unmarked) [Compound 54, 1-(2-(2-fluorophenoxy)ethyl)-N-((4-fluorophenyl)(pyridin-2-yl)methyl) piperidine-4-carboxamide] yielded a solubility in the data set “Solubility in PBS” greater than 500 µM. Besides, the fraction unbound came to 0.042 in the data set with plasma protein [1], 0.027 in the data set on plasma protein [3] and 0.039 in the data set with plasma protein [5]. Further, the “Microsomal Stability: % remaining” value in data set [2] is 70%; in data set [7], 66%; in [10] it was 29%. The “Caco2 A-B” value with Caco2 stood at 28.4. For the same compound, the “Caco2 B-A” value in the data set with Caco2 stood at 39.3. Also, the IC50 at human D2R/β-arrestin [4] and on human D2R/β-arrestin [9] was 100 to 1000 nM each time. In addition, the “Plasma Stability: % remaining” value in “Plasma stability, human” was determined as 96%; in “Plasma stability, rat”, 78%; in the data set “Plasma stability, mouse”, 100%. Moreover, the EC50 on human D2R/β-arrestin [6] and at human D2R/β-arrestin [8] was greater than 30000 nM throughout.

For the compound `O=C(NC(c1ccc(F)cc1)c1ccccn1)C1CCN(CCOc2ccccc2Cl)CC1` (centres unmarked) [Compound 53, 1-(2-(2-chlorophenoxy)ethyl)-N-((4-fluorophenyl)(pyridin-2-yl)methyl) piperidine-4-carboxamide], the solubility in the data set “Solubility in PBS” worked out at 149 µM (≈ 69.7 µg/mL). Besides, the fraction unbound in the data set with plasma protein [1] came out at 0.21; in the data set with plasma protein [3] it was 0.086; in the data set on plasma protein [5], 0.021. In addition, the “Microsomal Stability: % remaining” value in [2] worked out at 42%; in [7], 16%; in data set [10], 3%. For the same compound, the “Caco2 A-B” value in the data set with Caco2 was 27.4. In addition, in the data set on Caco2, the “Caco2 B-A” value was found to be 23.9. For the same compound, the IC50 on human D2R/β-arrestin [4] and at human D2R/β-arrestin [9] was less than 100 nM in each case. The inhibitory constant (Ki) (in general, a measure of affinity in units of concentration, obtained from inhibition or displacement) on D2 was 100 to 1000 nM. Moreover, the “Plasma Stability: % remaining” value came to 100% in “Plasma stability, human”; 78% in the data set “Plasma stability, rat”; 96% in the data set “Plasma stability, mouse”. The EC50 on human D2R/β-arrestin [6] and on human D2R/β-arrestin [8] was greater than 30000 nM throughout.

Regarding `O=C(NC(c1ccc(F)cc1)c1ccc(Cl)cc1)C1CCN(CCOc2ccccc2)CC1` (centres unmarked) [Compound 42], the solubility in the data set “Solubility in PBS” was less than 0.1 µM. For the same compound, the values for the fraction unbound in the data set with plasma protein [1], in the data set with plasma protein [3] and in the data set with plasma protein [5] were 0.007, 0.014 and 0.007, respectively. In addition, the “Microsomal Stability: % remaining” value in data set [2] is recorded as 40%; in [7], 70%; in [10], 59%. Also, the IC50 on human D2R/β-arrestin [4] and at human D2R/β-arrestin [9] was 100 to 1000 nM throughout. In addition, the Ki at D2 lay within 100 to 1000 nM. The “Plasma Stability: % remaining” value in “Plasma stability, human” came out at 98%; in the data set “Plasma stability, rat”, 93%; in “Plasma stability, mouse”, 100%. Further, the EC50 (commonly the midpoint of the concentration-response curve) on human D2R/β-arrestin [6] was 100 to 1000 nM; at human D2R/β-arrestin [8], greater than 30000 nM.

`O=C(NC(c1ccc(F)cc1)c1ccccn1)C1CCN(CCOc2ccccc2)CC1` (centres unmarked) [Compound 25] registered a solubility in the data set “Solubility in PBS” of 452 µM (≈ 196 µg/mL). Besides, the values for the fraction unbound with plasma protein [1], with plasma protein [3] and in the data set with plasma protein [5] were 0.08, 0.03 and 0.047, respectively. The “Microsomal Stability: % remaining” value in [2] is listed as 93%; in data set [7], 100%; in [10], 76%. The “Caco2 A-B” value in the data set with Caco2 was 33.7. In addition, the “Caco2 B-A” value in the data set with Caco2 is given as 50.5. In addition, the figures for the IC50 on human D2R/β-arrestin [4] and at human D2R/β-arrestin [9] were 1000 to 10000 nM and 10000 to 30000 nM, respectively. Besides, the Ki on D2 was 1000 to 10000 nM. Moreover, the “Plasma Stability: % remaining” value is 100% in the data set “Plasma stability, human”; 94.5% in “Plasma stability, rat”; 97% in “Plasma stability, mouse”. Also, the EC50 on human D2R/β-arrestin [6] was 10000 to 30000 nM; at human D2R/β-arrestin [8], greater than 30000 nM.

Turning to `O=C(NC(c1ccc(Cl)cc1)c1ccccc1F)C1CCN(CCOc2ccccc2)CC1` (centres unmarked) [Compound 40, N((4-chlorophenyl)(2-fluorophenyl)methyl)-1-(2-phenoxyethyl) piperidine-4-carboxamide], the solubility in “Solubility in PBS” was determined as 0.4 µM (≈ 0.187 µg/mL). In addition, the fraction unbound in the data set with plasma protein [1] stood at 0.011; with plasma protein [3], 0.023; in the data set with plasma protein [5] it was 0.01. The “Microsomal Stability: % remaining” value in data set [2] turned out to be 45%; in [7], 57%; in data set [10], 50%. In addition, in the data set on Caco2, the “Caco2 A-B” value turned out to be 4.4. Also, the “Caco2 B-A” value with Caco2 was found to be 1.9. Also, the IC50 at human D2R/β-arrestin [4] and on human D2R/β-arrestin [9] was 100 to 1000 nM in each case. At D2, this compound displayed a Ki of 1000 to 10000 nM. The “Plasma Stability: % remaining” value was 100% in “Plasma stability, human”; 90% in “Plasma stability, rat”; 100% in the data set “Plasma stability, mouse”. Besides, the EC50 at human D2R/β-arrestin [6] and on human D2R/β-arrestin [8] was greater than 30000 nM throughout.

`O=C(NC(c1ccc(Cl)cc1)c1ccccn1)C1CCN(CCn2ccc(=O)cc2)CC1` (centres unmarked) [Compound 11] registered a solubility in “Solubility in PBS” greater than 500 µM. Also, the values for the fraction unbound with plasma protein [1], with plasma protein [3] and in the data set on plasma protein [5] were 0.485, 0.211 and 0.391, respectively. For the same compound, the “Microsomal Stability: % remaining” value in data set [2] worked out at 95%; in [7] it was 100%; in [10], 100%. In addition, the IC50 (commonly the concentration at which inhibition is half-maximal) at human D2R/β-arrestin [4] was greater than 30000 nM; at human D2R/β-arrestin [9] it was 10000 to 30000 nM. In addition, the Ki at D2 lay within 10000 to 30000 nM. For the same compound, the “Plasma Stability: % remaining” value in the data set “Plasma stability, human” was 98.2%; in “Plasma stability, rat”, 100%; in the data set “Plasma stability, mouse” it was 89.5%. The EC50 on human D2R/β-arrestin [6] and at human D2R/β-arrestin [8] was greater than 30000 nM in each case.

For the origin of these results see patent US10752588B2 (The Broad Institute, Inc., priority 2014, dated 2020).
